USRE48461E1, “Modulation of androgen receptor expression” (Ionis Pharmaceuticals, Inc., priority 2012, dated 2021)
Oligonucleotides are written 5' to 3', each unit as a sugar letter and its base; * is a phosphorothioate linkage, no mark a phosphodiester; rarer units and linkages stand in square brackets, end groups in braces. Plain capitals give the bases only. k = constrained ethyl (cEt); [5mC] = 5-methylcytosine; d = 2'-deoxy (DNA)

Experiments:
KLK3 mRNA = KLK3 mRNA (AR target gene) in C4-2B MR cells; assay type: cell-based, human
[1] = tested on: prostate-specific antigen (PSA) mRNA; assay: PSA mRNA levels in LMR20 cells; assay type: cell-based, human; settings: LMR20 cells; for PSA mRNA levels (% baseline value) after treatment with DHT: DHT 10 nM 72 hrs; for PSA mRNA levels (% baseline value) after treatment with R1881: R1881 10 nM 72 hrs; for PSA mRNA levels (% baseline value) of cells without AR agonist treatment: no AR agonist
Protocol: LMR20 cells were plated at 1,500 cells per well in phenol red-free medium with CSS. […] Results are presented in Tables 43-45 as mRNA levels expressed as a percentage of the baseline values. mRNA levels may be lowered or increased after treatment.

AR mRNA = assay: AR RNA expression in C4-2 cells (complete, CSS+DHT medium); assay type: cell-based, human; settings: 48 hrs; for Percent expression of AR: C4-2 cells, CSS + DHT medium
Protocol: Cells were plated at 1,000 cells per well. […] After an incubation period of 48 hrs, RNA levels of AR, PSA and TMPRSS2 were measured.
Cells were plated at 2,000 cells per well and cultured in CSS media with 1 nM DHT. […] After an incubation period of 48 hrs, RNA levels of AR, PSA and TMPRSS2 were measured.

MDA-MB-453 tumor = assay: Tumor volume in MDA-MB-453 breast cancer orthotopic model; assay type: in vivo, NSG mice; settings: Study 2, MDA-MB-453 model, NSG mice, 50 mg/kg s.c. 5 days per week for 2 weeks
22RV1 cells = assay: 22RV1 cell proliferation, ASO in combination with MDV3100 (Example 22); assay type: cell-based, human; settings: for Proliferation (% untreated control) in 22RV1 without MDV-3100: RNAiMAX, 3 days
Protocol: 22RV1 cells were plated at 2,000 cells per well in 5% CSS medium for 48 hours. […] ISIS 549148 was included as a negative control. […] After a treatment period of 3 days, the proliferative capacity of the cancer cells was measured with CellTiter 96® AQueous One Solution Cell Proliferation kit (Promega), following the manufacturer's instructions. Results are presented in Tables 58-62 as percent inhibition of proliferation, relative to non-treated cells.

PSA mRNA = assay: PSA expression in C4-2B cells (Example 30); assay type: cell-based, human; settings: 48 hrs
Protocol: Cells were plated at 1,000 cells per well. […] ISIS 549148 was included as a negative control. […] After an incubation period of 48 hrs, RNA levels of AR, PSA and TMPRSS2 were measured.
Cells were plated at 2,000 cells per well and cultured in CSS media with 1 nM DHT. […] ISIS 549148 was included as a negative control. […] After an incubation period of 48 hrs, RNA levels of AR, PSA and TMPRSS2 were measured. In the absence of DHT, AR expression in C4-2 cells was 188%, PSA expression was 43% and TMPRSS2 expression was 27% compared to the untreated control.

TMPRSS2 mRNA = assay: TMPRSS2 expression in VCaP cells; assay type: cell-based, human; settings: RNAiMax, 48 hrs
Protocol: Cells were plated at 10,000 cells per well. […] After an incubation period of 48 hrs, RNA levels of full length AR, the V7 variant, PSA and TMPRSS2 were measured.
After an incubation period of 48 hrs, RNA levels of full length AR, the V7 variant, PSA and TMPRSS2 were measured. The data is presented in Tables 108 expressed as percent expression of gene levels compared to the untreated control.
Cells were plated at 15,000 cells per well and cultured in CSS media for 16 hours. […] After 4 hrs, 1 nM DHT was added. […] After an incubation period of 48 hrs, RNA levels of AR, PSA and TMPRSS2 were measured.

## 549372 (kA*kA*kG*dT*dT*dG*dT*dA*dG*dT*dA*dG*dT*k[5mC]*kG*k[5mC]) [compound 549372]
KLK3 mRNA; 0.04 μM
  Percent inhibition of KLK3 mRNA in C4-2B MR cells: 17%
KLK3 mRNA; 0.20 μM
  Percent inhibition of KLK3 mRNA in C4-2B MR cells: 35%
KLK3 mRNA; 1.00 μM
  Percent inhibition of KLK3 mRNA in C4-2B MR cells: 68%
KLK3 mRNA; 5.00 μM
  Percent inhibition of KLK3 mRNA in C4-2B MR cells: 80%

## 549458 (kG*kT*kT*dG*dA*dT*dT*dT*dA*dA*dT*dG*dG*kT*kT*kG) [compound 549458]
[1]; ASO 0.04 μM
  PSA mRNA levels (% baseline value) after treatment with DHT: 93 % baseline value
  PSA mRNA levels (% baseline value) after treatment with R1881: 93 % baseline value
  PSA mRNA levels (% baseline value) of cells without AR agonist treatment: 135 % baseline value
[1]; ASO 0.20 μM
  PSA mRNA levels (% baseline value) after treatment with DHT: 71 % baseline value
  PSA mRNA levels (% baseline value) after treatment with R1881: 67 % baseline value
  PSA mRNA levels (% baseline value) of cells without AR agonist treatment: 85 % baseline value
[1]; ASO 1.0 μM
  PSA mRNA levels (% baseline value) after treatment with DHT: 47 % baseline value
  PSA mRNA levels (% baseline value) after treatment with R1881: 50 % baseline value
  PSA mRNA levels (% baseline value) of cells without AR agonist treatment: 50 % baseline value
[1]; ASO 5.0 μM
  PSA mRNA levels (% baseline value) after treatment with DHT: 47 % baseline value
  PSA mRNA levels (% baseline value) after treatment with R1881: 44 % baseline value
  PSA mRNA levels (% baseline value) of cells without AR agonist treatment: 72 % baseline value
KLK3 mRNA; 0.04 μM
  Percent inhibition of KLK3 mRNA in C4-2B MR cells: 0%
KLK3 mRNA; 0.20 μM
  Percent inhibition of KLK3 mRNA in C4-2B MR cells: 42%
KLK3 mRNA; 1.00 μM
  Percent inhibition of KLK3 mRNA in C4-2B MR cells: 81%
KLK3 mRNA; 5.00 μM
  Percent inhibition of KLK3 mRNA in C4-2B MR cells: 92%

## GGCTACTACGCCGTCA (3-10-3 (S)-cEt gapmer, chemistry not fully specified) [ISIS 549148, reference compound]
AR mRNA; 0.04 μM
  Percent expression of AR: 101%
  Percent expression of AR in C4-2 cells cultured in complete medium: 89%
AR mRNA; 0.2 μM
  Percent expression of AR: 101%
  Percent expression of AR in C4-2 cells cultured in complete medium: 90%
AR mRNA; 1 μM
  Percent expression of AR: 118%
  Percent expression of AR in C4-2 cells cultured in complete medium: 84%
AR mRNA; 5.0 μM
  Percent expression of AR in C4-2 cells cultured in complete medium: 86%
MDA-MB-453 tumor; Day 0
  Tumor volumes: 148
MDA-MB-453 tumor; Day 8
  Tumor volumes: 303
MDA-MB-453 tumor; Day 13
  Tumor volumes: 312
MDA-MB-453 tumor; Day 20
  Tumor volumes: 365
MDA-MB-453 tumor; Day 23
  Tumor volumes: 413
MDA-MB-453 tumor; Day 27
  Tumor volumes: 490
MDA-MB-453 tumor; Day 29
  Tumor volumes: 550
22RV1 cells; ASO dose 0.4 nM + 0.04 μM MDV-3100
  Proliferation (% untreated control) in 22RV1 cells with 0.04 μM MDV-3100: 106 % untreated control
22RV1 cells; ASO dose 0.4 nM + 0.2 μM MDV-3100
  Proliferation (% untreated control) in 22RV1 cells with 0.2 μM MDV-3100: 101 % untreated control
22RV1 cells; ASO dose 0.4 nM + 1.0 μM MDV-3100
  Proliferation (% untreated control) in 22RV1 cells with 1.0 μM MDV-3100: 106 % untreated control
22RV1 cells; ASO dose 0.4 nM + 5.0 μM MDV-3100
  Proliferation (% untreated control) in 22RV1 cells with 5.0 μM MDV-3100: 96 % untreated control
22RV1 cells; ASO dose 0.4 nM
  Proliferation (% untreated control) in 22RV1 without MDV-3100: 109 % untreated control
22RV1 cells; ASO dose 1.34 nM + 0.04 μM MDV-3100
  Proliferation (% untreated control) in 22RV1 cells with 0.04 μM MDV-3100: 106 % untreated control
22RV1 cells; ASO dose 1.34 nM + 0.2 μM MDV-3100
  Proliferation (% untreated control) in 22RV1 cells with 0.2 μM MDV-3100: 115 % untreated control
22RV1 cells; ASO dose 1.34 nM + 1.0 μM MDV-3100
  Proliferation (% untreated control) in 22RV1 cells with 1.0 μM MDV-3100: 95 % untreated control
22RV1 cells; ASO dose 1.34 nM + 5.0 μM MDV-3100
  Proliferation (% untreated control) in 22RV1 cells with 5.0 μM MDV-3100: 102 % untreated control
22RV1 cells; ASO dose 1.34 nM
  Proliferation (% untreated control) in 22RV1 without MDV-3100: 109 % untreated control
22RV1 cells; ASO dose 4.0 nM + 0.04 μM MDV-3100
  Proliferation (% untreated control) in 22RV1 cells with 0.04 μM MDV-3100: 100 % untreated control
22RV1 cells; ASO dose 4.0 nM + 0.2 μM MDV-3100
  Proliferation (% untreated control) in 22RV1 cells with 0.2 μM MDV-3100: 110 % untreated control
22RV1 cells; ASO dose 4.0 nM + 1.0 μM MDV-3100
  Proliferation (% untreated control) in 22RV1 cells with 1.0 μM MDV-3100: 98 % untreated control
22RV1 cells; ASO dose 4.0 nM + 5.0 μM MDV-3100
  Proliferation (% untreated control) in 22RV1 cells with 5.0 μM MDV-3100: 98 % untreated control
22RV1 cells; ASO dose 4.0 nM
  Proliferation (% untreated control) in 22RV1 without MDV-3100: 109 % untreated control
22RV1 cells; ASO dose 13.4 nM + 0.04 μM MDV-3100
  Proliferation (% untreated control) in 22RV1 cells with 0.04 μM MDV-3100: 85 % untreated control
22RV1 cells; ASO dose 13.4 nM + 0.2 μM MDV-3100
  Proliferation (% untreated control) in 22RV1 cells with 0.2 μM MDV-3100: 96 % untreated control
22RV1 cells; ASO dose 13.4 nM + 1.0 μM MDV-3100
  Proliferation (% untreated control) in 22RV1 cells with 1.0 μM MDV-3100: 82 % untreated control
22RV1 cells; ASO dose 13.4 nM + 5.0 μM MDV-3100
  Proliferation (% untreated control) in 22RV1 cells with 5.0 μM MDV-3100: 85 % untreated control
22RV1 cells; ASO dose 13.4 nM
  Proliferation (% untreated control) in 22RV1 without MDV-3100: 99 % untreated control
PSA mRNA; CSS + DHT medium, 0.04 μM
  Percent inhibition of PSA expression: 0%
PSA mRNA; CSS + DHT medium, 0.2 μM
  Percent inhibition of PSA expression: 0%
PSA mRNA; CSS + DHT medium, 1 μM
  Percent inhibition of PSA expression: 0%
PSA mRNA; CSS + DHT medium, 5.0 μM
  Percent inhibition of PSA expression: 0%
PSA mRNA; complete medium, 0.04 μM
  Percent inhibition of PSA expression: 3%
PSA mRNA; complete medium, 0.2 μM
  Percent inhibition of PSA expression: 11%
PSA mRNA; complete medium, 1 μM
  Percent inhibition of PSA expression: 18%
PSA mRNA; complete medium, 5.0 μM
  Percent inhibition of PSA expression: 14%
TMPRSS2 mRNA; CSS + DHT medium, 1.34 nM
  Percent inhibition of TMPRSS2 expression: 0%
TMPRSS2 mRNA; CSS + DHT medium, 4.0 nM
  Percent inhibition of TMPRSS2 expression: 0%
TMPRSS2 mRNA; CSS + DHT medium, 13.4 nM
  Percent inhibition of TMPRSS2 expression: 0%
TMPRSS2 mRNA; CSS + DHT medium, 40 nM
  Percent inhibition of TMPRSS2 expression: 0%
TMPRSS2 mRNA; complete medium, 1.34 nM
  Percent inhibition of TMPRSS2 expression: 0%
TMPRSS2 mRNA; complete medium, 4.0 nM
  Percent inhibition of TMPRSS2 expression: 0%
TMPRSS2 mRNA; complete medium, 13.4 nM
  Percent inhibition of TMPRSS2 expression: 0%
TMPRSS2 mRNA; complete medium, 40 nM
  Percent inhibition of TMPRSS2 expression: 0%
